From ChEMBL document CHEMBL1201862, “PubChem BioAssay data set” (2004)
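Each compound was tested at five concentrations against cells in 96-well plates for 48 hours. GI50 = concentration required for 50% inhibition of growth.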 The source made the active and inactive calls. No stated cut-off is given here; in the data, active = GI50 up to about 1.1 µM and inactive = higher.

What was measured:
Assay in all cases: DTP human tumour cell line panel, 48 h
[1] = system: CCRF-CEM
[2] = system: M14
[3] = system: K562
[4] = system: UACC-257
[5] = system: HT-29
[6] = system: IGROV-1
[7] = system: NCI-H23
[8] = system: MDA-MB-435
[9] = system: NCI-H226
[10] = system: SW-620
[11] = system: SNB-19
[12] = system: SNB-75
[13] = system: 786-0
[14] = system: A549
[15] = system: UACC-62
[16] = system: MDA-N
[17] = system: T47D
[18] = system: HOP-92
[19] = system: NCI-H522
[20] = system: A498

For CCCCC1(O)CC2CC1C(C)C2(C)C (stereo not drawn), the GI50 [1] was 93.5 µM (inactive), the GI50 [2] was > 100 µM (inactive) and the GI50 [3] was > 100 µM (inactive). For the same compound, the GI50 [4] was > 100 µM (inactive), the GI50 [5] was > 100 µM (inactive) and the GI50 [6] was > 100 µM (inactive). The GI50 [7] was > 100 µM (inactive), the GI50 [8] was > 100 µM (inactive) and the GI50 [9] was > 100 µM (inactive). The GI50 [10] was > 100 µM (inactive), the GI50 [11] was > 100 µM (inactive) and the GI50 [12] was > 100 µM (inactive). For the same compound, the GI50 [13] was > 100 µM (inactive), the GI50 [14] was > 100 µM (inactive) and the GI50 [15] was > 100 µM (inactive). For the same compound, the GI50 [16] was > 100 µM (inactive).

With O=C1NC(O)c2cc3ccccc3cc2O1 (stereo not drawn) the GI50 [1] was 29.2 µM (inactive), the GI50 [2] was 38.6 µM (inactive) and the GI50 [3] was 34.9 µM (inactive). The GI50 [17] was 25.5 µM (inactive), the GI50 [4] was 61.1 µM (inactive) and the GI50 [5] was > 100 µM (inactive). The GI50 [6] was 69.5 µM (inactive), the GI50 [18] was 25.6 µM (inactive) and the GI50 [7] was 42.7 µM (inactive). The GI50 [8] was 51.8 µM (inactive), the GI50 [9] was > 100 µM (inactive) and the GI50 [10] was 61.1 µM (inactive). The GI50 [11] was 60 µM (inactive), the GI50 [12] was 79.6 µM (inactive) and the GI50 [13] was > 100 µM (inactive). The GI50 [14] was > 100 µM (inactive), the GI50 [15] was 21.7 µM (inactive) and the GI50 [19] was > 100 µM (inactive).

For COc1ccc2c(c1)CCN1CCCc3ccccc3C21 (stereo not drawn), the GI50 [1] was 37.5 µM (inactive), the GI50 [2] was 15.9 µM (inactive) and the GI50 [3] was 30.1 µM (inactive). The GI50 [17] was 45.1 µM (inactive), the GI50 [4] was 41.9 µM (inactive) and the GI50 [5] was 28.2 µM (inactive). The GI50 [6] was 47.6 µM (inactive), the GI50 [18] was 46.2 µM (inactive) and the GI50 [20] was > 100 µM (inactive). The GI50 [7] was 45.8 µM (inactive), the GI50 [8] was 20.5 µM (inactive) and the GI50 [9] was 28.1 µM (inactive). For the same compound, the GI50 [10] was 52 µM (inactive), the GI50 [11] was 94.6 µM (inactive) and the GI50 [12] was 22 µM (inactive). The GI50 [13] was 38.4 µM (inactive), the GI50 [14] was 50.5 µM (inactive) and the GI50 [15] was 31 µM (inactive). The GI50 [19] was 34.4 µM (inactive).

CC/C(=C\c1ccc(OC)cc1)c1ccc(OC)cc1 was tested, and the GI50 [1] was > 100 µM (inactive), the GI50 [2] was 72.6 µM (inactive) and the GI50 [3] was > 100 µM (inactive). For the same compound, the GI50 [4] was 38.5 µM (inactive), the GI50 [5] was 37.5 µM (inactive) and the GI50 [6] was > 100 µM (inactive). The GI50 [18] was 69.7 µM (inactive), the GI50 [20] was > 100 µM (inactive) and the GI50 [7] was 86.3 µM (inactive). The GI50 [8] was 45.7 µM (inactive), the GI50 [9] was > 100 µM (inactive) and the GI50 [10] was > 100 µM (inactive). The GI50 [11] was > 100 µM (inactive), the GI50 [12] was > 100 µM (inactive) and the GI50 [13] was 94.2 µM (inactive). The GI50 [14] was > 100 µM (inactive), the GI50 [15] was > 100 µM (inactive) and the GI50 [16] was > 100 µM (inactive). The GI50 [19] was > 100 µM (inactive).

For CNC(=S)/C(C#N)=C(\N)N1CCCC1, the GI50 [1] was > 100 µM (inactive), the GI50 [3] was > 100 µM (inactive) and the GI50 [17] was 57.5 µM (inactive). The GI50 [5] was > 100 µM (inactive), the GI50 [6] was > 100 µM (inactive) and the GI50 [20] was > 100 µM (inactive). For the same compound, the GI50 [7] was > 100 µM (inactive), the GI50 [8] was > 100 µM (inactive) and the GI50 [9] was > 100 µM (inactive). For the same compound, the GI50 [10] was > 100 µM (inactive), the GI50 [11] was > 100 µM (inactive) and the GI50 [13] was > 100 µM (inactive). For the same compound, the GI50 [14] was > 100 µM (inactive), the GI50 [15] was > 100 µM (inactive) and the GI50 [16] was > 100 µM (inactive). For the same compound, the GI50 [19] was > 100 µM (inactive).

With COc1ccc(CC(CO)NC(=O)OCc2ccccc2)cc1Oc1ccc(CC(CO)NC(=O)OCc2ccccc2)cc1 (stereo not drawn) the GI50 [1] was 5.77 µM (inactive), the GI50 [2] was 10.7 µM (inactive) and the GI50 [4] was 17 µM (inactive). For the same compound, the GI50 [5] was 11.1 µM (inactive), the GI50 [6] was 11 µM (inactive) and the GI50 [18] was 18.3 µM (inactive). The GI50 [20] was 15.5 µM (inactive), the GI50 [7] was 16.5 µM (inactive) and the GI50 [8] was 15.3 µM (inactive). For the same compound, the GI50 [10] was 32.2 µM (inactive), the GI50 [11] was 19 µM (inactive) and the GI50 [12] was 0.37 µM (active). For the same compound, the GI50 [14] was 11.7 µM (inactive), the GI50 [15] was 11.5 µM (inactive) and the GI50 [16] was 15.6 µM (inactive). For the same compound, the GI50 [19] was 1.47 µM (inactive).

With CC(C)OC(=O)[C@@H](O)[C@H](CO)C1=CC([Si](C)(C)c2ccccc2)=CON1 the GI50 [2] was > 100 µM (inactive), the GI50 [3] was > 100 µM (inactive) and the GI50 [17] was > 100 µM (inactive). For the same compound, the GI50 [4] was > 100 µM (inactive), the GI50 [5] was > 100 µM (inactive) and the GI50 [20] was > 100 µM (inactive). The GI50 [7] was > 100 µM (inactive), the GI50 [8] was > 100 µM (inactive) and the GI50 [9] was > 100 µM (inactive). For the same compound, the GI50 [10] was > 100 µM (inactive), the GI50 [11] was > 100 µM (inactive) and the GI50 [12] was 1.26 µM (inactive). The GI50 [13] was > 100 µM (inactive), the GI50 [14] was > 100 µM (inactive) and the GI50 [15] was > 100 µM (inactive).

For CN(C)/N=N/c1ccc2[nH]c(=O)[nH]c2c1, the GI50 [1] was 62.2 µM (inactive), the GI50 [2] was > 100 µM (inactive) and the GI50 [3] was > 100 µM (inactive). The GI50 [17] was > 100 µM (inactive), the GI50 [4] was > 100 µM (inactive) and the GI50 [5] was > 100 µM (inactive). For the same compound, the GI50 [6] was > 100 µM (inactive), the GI50 [20] was > 100 µM (inactive) and the GI50 [7] was > 100 µM (inactive). The GI50 [8] was > 100 µM (inactive), the GI50 [9] was > 100 µM (inactive) and the GI50 [10] was > 100 µM (inactive). For the same compound, the GI50 [11] was > 100 µM (inactive), the GI50 [12] was > 100 µM (inactive) and the GI50 [13] was > 100 µM (inactive). The GI50 [14] was > 100 µM (inactive), the GI50 [15] was > 100 µM (inactive) and the GI50 [16] was > 100 µM (inactive). For the same compound, the GI50 [19] was > 100 µM (inactive).
